The test deals with BDF1 mice, P388 leukemia ip, median survival T/C. The test can be described thus: NCI In Vivo Anticancer Drug Screen. Data for tumor model P388 Leukemia (intraperitoneal) in B6D2F1 (BDF1) mice. The note with it: endpoint: median survival time, higher = longer survival. In a few lines: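 Antitumour effect was judged in vivo: survival in drug-treated mice, normalised to that of vehicle-dosed controls, gives the reported T/C.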

Where [1] appears, read: dose: 3.12 mg/kg/injection, schedule: Q01DX009 (ip), vehicle: saline.
The mark [2] stands for this setting: dose: 6.25 mg/kg/injection, schedule: Q01DX009 (ip), vehicle: saline.
Setting [3] is: dose: 12.5 mg/kg/injection, schedule: Q01DX009 (ip), vehicle: saline.
[4] abbreviates: dose: 25.0 mg/kg/injection, schedule: Q01DX009 (ip), vehicle: saline.
[5] abbreviates: dose: 100.0 mg/kg/injection, schedule: Q01DX009 (ip), vehicle: saline.
The mark [6] stands for this setting: dose: 200.0 mg/kg/injection, schedule: Q01DX009 (ip), vehicle: saline.
[7] abbreviates: dose: 100.0 mg/kg/injection, schedule: Q01DX001 (ip), vehicle: saline with Tween-80.
[8] abbreviates: dose: 200.0 mg/kg/injection, schedule: Q01DX001 (ip), vehicle: saline with Tween-80.
[9] abbreviates: dose: 400.0 mg/kg/injection, schedule: Q01DX001 (ip), vehicle: saline with Tween-80.
The mark [10] stands for this setting: dose: 50.0 mg/kg/injection, schedule: Q01DX009 (ip), vehicle: saline.

Where “and” joins values, the source holds several entries; their conditions need not be identical. Identical values can stand only once. Toxic doses and inconclusive results are not listed.

For the molecule `Clc1nnc(Cl)c(Cl)c1Cl`, the T/C runs as follows: (dose: 0.22 mg/kg/injection, schedule: Q01DX009 (ip), vehicle: Klucel (hydroxypropylcellulose) (HPC)) 100 % of control; (dose: 0.22 mg/kg/injection, schedule: Q04DX003 (ip), vehicle: Klucel (hydroxypropylcellulose) (HPC)) 100 % of control; (dose: 0.45 mg/kg/injection, schedule: Q01DX009 (ip), vehicle: Klucel (hydroxypropylcellulose) (HPC)) 91 % of control; (dose: 0.45 mg/kg/injection, schedule: Q04DX003 (ip), vehicle: Klucel (hydroxypropylcellulose) (HPC)) 118 % of control; (dose: 0.9 mg/kg/injection, schedule: Q01DX009 (ip), vehicle: Klucel (hydroxypropylcellulose) (HPC)) 91 % of control; (dose: 0.9 mg/kg/injection, schedule: Q04DX003 (ip), vehicle: Klucel (hydroxypropylcellulose) (HPC)) 104 % of control. For the same molecule, the T/C reads like this: (dose: 1.3 mg/kg/injection, schedule: Q04DX003 (ip), vehicle: Klucel (hydroxypropylcellulose) (HPC)) 104 % of control; (dose: 2.0 mg/kg/injection, schedule: Q04DX003 (ip), vehicle: Klucel (hydroxypropylcellulose) (HPC)) 113 % of control; (dose: 2.8 mg/kg/injection, schedule: Q01DX009 (ip), vehicle: saline) 87 % of control; (dose: 3.0 mg/kg/injection, schedule: Q04DX003 (ip), vehicle: Klucel (hydroxypropylcellulose) (HPC)) 104 % of control.
For the molecule `Cc1ccc(S)c(S)c1`, the T/C runs as follows: under setting [1], 97 % of control; under setting [2], 103 % of control; under setting [3], 103 % of control; under setting [4], 112 % of control.
For `CCOC(=O)C1Cc2c([nH]c(=O)[nH]c2=O)OC1c1cccc(Cl)c1` (stereo unspecified), the T/C (dose: 3.12 mg/kg/injection, schedule: Q01DX009 (ip), vehicle: saline with Tween-80) is 98 % of control; the T/C (dose: 6.25 mg/kg/injection, schedule: Q01DX009 (ip), vehicle: saline with Tween-80) is 96 % of control and 102 % of control; the T/C (dose: 12.5 mg/kg/injection, schedule: Q01DX009 (ip), vehicle: saline with Tween-80) was 93 % of control; the T/C (dose: 25.0 mg/kg/injection, schedule: Q01DX009 (ip), vehicle: saline with Tween-80) was 99 % of control and 107 % of control.
Turning to `C=CC(=O)Oc1ccc(Cl)cc1`, the T/C reads like this: (dose: 12.5 mg/kg/injection, schedule: Q04DX003 (ip), vehicle: saline with Tween-80) 100 % of control; (dose: 25.0 mg/kg/injection, schedule: Q04DX003 (ip), vehicle: saline with Tween-80) 104 % of control; (dose: 50.0 mg/kg/injection, schedule: Q04DX003 (ip), vehicle: saline with Tween-80) 118 % of control.
Consider `Cc1nc2n[nH]c(N)c2nc1C`, for which the T/C was 100 % of control under setting [5]; 100 % of control under setting [6]; 91 % of control (dose: 400.0 mg/kg/injection, schedule: Q01DX009 (ip), vehicle: saline).
As for `CCCCCCCCCCCCCSCCCCCCCCSCCCCCCCCCCCCC`, the T/C reads like this: under setting [7], 95 % of control; under setting [8], 90 % of control; under setting [9], 100 % of control.
On to `CC(O)C(C)(O)C(=O)O` (stereo unspecified), for which the T/C was 103 % of control under setting [10]; 117 % of control under setting [5]; 101 % of control (dose: 100.0 mg/kg/injection, schedule: Q04DX003 (ip), vehicle: saline); 91 % of control under setting [6]; 95 % of control (dose: 200.0 mg/kg/injection, schedule: Q04DX003 (ip), vehicle: saline); 99 % of control (dose: 300.0 mg/kg/injection, schedule: Q01DX009 (ip), vehicle: saline).
Regarding `O.O=c1[nH]cc(Cl)c(=O)[nH]1.[NH2-].[NH2-].[Pt+2]`, the T/C was 118 % of control (dose: 6.25 mg/kg/injection, schedule: Q01DX009 (ip), vehicle: water); 155 % of control (dose: 12.5 mg/kg/injection, schedule: Q01DX009 (ip), vehicle: water); 123 % of control (dose: 12.5 mg/kg/injection, schedule: Q04DX003 (ip), vehicle: water); 229 % of control and 171 % of control (dose: 25.0 mg/kg/injection, schedule: Q01DX009 (ip), vehicle: water); 166 % of control (dose: 25.0 mg/kg/injection, schedule: Q04DX003 (ip), vehicle: water); 192 % of control (dose: 50.0 mg/kg/injection, schedule: Q01DX009 (ip), vehicle: water). The T/C (dose: 50.0 mg/kg/injection, schedule: Q04DX003 (ip), vehicle: water) is 200 % of control.
With `O=C1C=CC(=O)N1`, the T/C runs as follows: (dose: 0.26 mg/kg/injection, schedule: Q01DX009 (ip), vehicle: saline) 105 % of control; (dose: 0.4 mg/kg/injection, schedule: Q01DX009 (ip), vehicle: saline) 90 % of control; (dose: 0.61 mg/kg/injection, schedule: Q01DX009 (ip), vehicle: saline) 100 % of control; (dose: 0.93 mg/kg/injection, schedule: Q01DX009 (ip), vehicle: saline) 109 % of control; (dose: 1.39 mg/kg/injection, schedule: Q01DX009 (ip), vehicle: saline) 118 % of control; (dose: 3.6 mg/kg/injection, schedule: Q04DX003 (ip), vehicle: saline) 95 % of control. Besides, under “dose: 8.5 mg/kg/injection, schedule: Q04DX003 (ip), vehicle: saline”, the T/C was 104 % of control.
For the molecule `CC(=O)C(C)(c1ccccc1)N(Cc1ccccc1)C(=O)c1ccccc1` (stereo unspecified), the T/C reads like this: (dose: 100.0 mg/kg/injection, schedule: Q01DX001 (ip), vehicle: saline) 109 % of control; (dose: 200.0 mg/kg/injection, schedule: Q01DX001 (ip), vehicle: saline) 109 % of control; (dose: 400.0 mg/kg/injection, schedule: Q01DX001 (ip), vehicle: saline) 104 % of control.
With `COC(=O)c1cccn1C(=O)c1c2nc3c(C(=O)n4cccc4C(=O)OC)ccc(C)c3oc-2c(C)c(=O)c1N`, the T/C reads like this: (dose: 100.0 mg/kg/injection, schedule: Q04DX003 (ip), vehicle: saline with Tween-80) 101 % of control; (dose: 200.0 mg/kg/injection, schedule: Q04DX003 (ip), vehicle: saline with Tween-80) 102 % of control; (dose: 400.0 mg/kg/injection, schedule: Q04DX003 (ip), vehicle: saline with Tween-80) 103 % of control.
For `Cn1c(N)c(N=O)c(=O)n(C)c1=O`, the T/C is 109 % of control under setting [1]; 100 % of control under setting [2]; 100 % of control under setting [3]; 95 % of control (dose: 25.0 mg/kg/injection, schedule: Q01DX009 (ip), vehicle: Klucel (hydroxypropylcellulose) (HPC)); 90 % of control (dose: 50.0 mg/kg/injection, schedule: Q01DX009 (ip), vehicle: Klucel (hydroxypropylcellulose) (HPC)); 109 % of control (dose: 100.0 mg/kg/injection, schedule: Q04DX003 (ip), vehicle: alcohol). The T/C is 109 % of control (dose: 125.0 mg/kg/injection, schedule: Q01DX010 (ip), vehicle: other); 100 % of control (dose: 200.0 mg/kg/injection, schedule: Q04DX003 (ip), vehicle: alcohol); 86 % of control (dose: 250.0 mg/kg/injection, schedule: Q01DX010 (ip), vehicle: other); 100 % of control (dose: 400.0 mg/kg/injection, schedule: Q04DX003 (ip), vehicle: alcohol).
In the case of `Cc1cccc(-n2nc3c(=O)n(C)c(=O)n(C)c3nc2=O)c1`, the T/C runs as follows: under setting [7], 88 % of control; under setting [8], 96 % of control; under setting [9], 92 % of control.
`O=C1/C(=C/c2ccccc2)CCCC1/C=C/c1ccccc1` (stereo unspecified): the T/C (dose: 100.0 mg/kg/injection, schedule: Q04DX003 (ip), vehicle: Klucel (hydroxypropylcellulose) (HPC)) is 100 % of control; the T/C (dose: 200.0 mg/kg/injection, schedule: Q04DX003 (ip), vehicle: Klucel (hydroxypropylcellulose) (HPC)) was 104 % of control; the T/C (dose: 400.0 mg/kg/injection, schedule: Q04DX003 (ip), vehicle: Klucel (hydroxypropylcellulose) (HPC)) was 104 % of control.
For `S=c1nc[nH]c2c1ncn2C1CCCC1`, the T/C runs as follows: (dose: 100.0 mg/kg/injection, schedule: Q01DX009 (ip), vehicle: saline with Tween-80) 104 % of control; (dose: 200.0 mg/kg/injection, schedule: Q01DX009 (ip), vehicle: saline with Tween-80) 95 % of control.
On to `CN(C)c1ccc(N=Cc2cc[n+](C)cc2)cc1`, for which the T/C runs as follows: under setting [3], 104 % of control; (dose: 16.5 mg/kg/injection, schedule: Q01DX009 (ip), vehicle: saline) 116 % of control and 122 % of control; under setting [4], 101 % of control; (dose: 37.5 mg/kg/injection, schedule: Q01DX009 (ip), vehicle: saline) 109 % of control and 118 % of control; under setting [10], 118 % of control.

The values are drawn from PubChem BioAssay AID328 (DTP/NCI, 2004).
